{"source": "paper PMC4922569", "about": "“Antifibrotic Effects of the Dual CCR2/CCR5 Antagonist Cenicriviroc in Animal Models of Liver and Kidney Fibrosis” (PLoS ONE, 2016)", "key": {"[1]": {"system": "monocyte/macrophage recruitment", "test": "Thioglycollate (TG)-induced mouse model of peritonitis: peritoneal lavage monocyte/macrophage counts", "type": "in vivo", "details": "for Decrease in peritoneal lavage monocyte/macrophage counts compared to vehicle control: 48 h post-TG", "description": "A murine thioglycollate (TG)-induced model of peritonitis, where acute inflammation induced by intraperitoneal (IP) injection of TG results in a rapid increase in monocyte/macrophage migration into the peritoneal cavity, was employed to assess the effects of CVC on cell recruitment in vivo. The protocol was approved by the IACUC of Charles River Laboratories Preclinical Services, Montreal (PCS-MTL). The care and use of animals was conducted in accordance with the guidelines of the US National Research Council and the Canadian Council on Animal Care.\n(§1) Male C57BL/6 mice (n = 44; 8–10 weeks of age; Charles River Laboratories, Canada) were allocated to receive treatments via oral gavage (PO) on Days 1–5 in the following groups: non-disease control, vehicle control twice daily (BID), CVC 5 mg/kg/day (CVC5) BID, CVC 20 mg/kg/day (CVC20) BID, CVC 100 mg/kg/day (CVC100) BID, CVC20 QD, and positive control dexamethasone (corticosteroid known to reduce inflammation in a variety of animal models) 1 mg/kg QD (S1 Table). On Day 4, peritonitis was induced via IP injection of TG 3.85% (1 mL/animal) 2 hours post-dose in all groups except non-disease controls. Study endpoints included: peritoneal lavage cell counts and pharmacokinetic (PK) evaluation. Animals were sacrificed 48 hours post-TG injection by isoflurane inhalation, and peritoneal lavage and blood samples (0.7 mL) were collected. Differential cell counts were assessed in peritoneal lavage samples using an Advia® Hematology System (Siemens Healthcare Diagnostics, USA) with multispecies software and an analysis software designed for mouse peritoneal fluid on Advia® 120 (LabThruPut, USA). A 0.3 mL aliquot of the blood sample was processed to plasma for PK analysis.\nIn the peritonitis mouse model, one-way analysis of variance with post-hoc Dunnett’s test was performed, using GraphPad Prism® (GraphPad Software, Inc., USA), on differential cell counts obtained from lavage in treatment groups versus the vehicle-control group. For the ex vivo migration of mouse monocytes, statistical significance was determined by a Student’s t test."}, "[2]": {"system": "UUO-induced renal fibrosis", "test": "Mouse model of UUO-induced renal fibrosis", "type": "in vivo", "details": "for Reduction of UUO-induced increase in Collagen Volume Fraction (±SEM) vs UUO control: p < 0.05", "description": "Unilateral ureter obstruction is a commonly used experimental model of kidney injury, in which interstitial inflammation, tubular cell injury/death and fibrosis, ensue. The protocol was approved by Plato BioPharma, Inc. IACUC (PBI; approval number 2013–04). The care and use of animals was conducted in accordance with the NIH Guide for the Care and Use of Laboratory Animals (2010), […] Guidelines on Euthanasia (2007), Office of Laboratory Animal Welfare Institutional Animal Care and Use Committee Guidebook (2002), Public Health Service Policy on Humane Care and Use of Laboratory Animals (2002), PBI standard operating procedures on a) moribund sacrifice, b) vivarium maintenance and animal care, and c) animal handling and dosing. Anesthesia was performed by isoflurane […]; animals were euthanized by diaphragm laceration followed by heart laceration while under isoflurane anesthesia.\nMale CD-1 mice (n = 51; 7–8 weeks of age; Charles River Laboratories, USA) were allocated to weight-matched treatment groups on Day -1 (1 day prior to either sham [one group] or permanent right UUO surgery [five groups] via aseptic laparotomy). From Days -1 to 4, mice received phosphate-buffered saline (PBS) IP QD, apart from a positive-control group, which received 1D11 (anti-TGF-beta1 antibody) 3 mg/kg IP QD. From Days 0 to 5, mice received vehicle control (sham surgery, UUO-control and UUO+positive-control groups) or CVC 7 mg/kg/day (CVC7), CVC20 or CVC100 PO BID (S1 Table). The CVC100 group was terminated due to poor clinical condition (6/9 animals died and 3/9 euthanized prior to end of study). […]\nIn the UUO model, ten images/depth/kidney were assessed in a blinded fashion using Axio Imager.A2 (Zeiss, USA) light microscopy (at 200x magnification to enable 60–70% sampling of renal cortical area) and quantified by a composite Collagen Volume Fraction (CVF [% total area imaged]) score expressed as the average positive stain across three anatomically distinct ([…] apart) tissue sections, or depths, from the obstructed kidney.\nIn the UUO model, frozen renal cortical tissue biopsies were hydrolyzed and centrifuged, and the supernatant was analyzed by OD absorbance at 560 nm on a SpectraMax® 190 (Molecular Devices, USA). Standard curves for conversion of ODs to concentrations were generated using linear regression and sample concentrations were determined using SoftMax® Pro5 software (Molecular Devices, USA).\nIn the UUO model, mRNA expression levels in renal cortical tissue were evaluated using the QuantiGene® Plex 2.0 profiling platform (Affymetrix, USA). […]\nIn the UUO model, data are expressed as mean ±SEM. […]"}, "[3]": {"test": "CVC plasma levels in the TG-induced model of peritonitis (LC/MS/MS)", "type": "in vivo", "details": "male, C57BL/6, mouse, oral, 20 mg/kg/day, CVC20 QD, n = 5, 26 hours post-dose, read-out: CVC trough plasma level", "description": "as §1\nCVC plasma levels (minimum and maximum) were determined by KCAS Bioanalytical Services, USA, using a validated liquid chromatography-tandem mass spectrometry (LC/MS/MS) plasma method (50 μL assay, range 10.0−1920.0 ng/mL)."}, "[4]": {"system": "APAP-induced liver injury", "details": "cited from earlier work"}, "[5]": {"system": "CCl4-induced liver injury", "details": "cited from earlier work"}, "[6]": {"details": "acute APAP-induced liver injury"}}, "note": "Where a name gives a salt, the structure may show the parent alone.", "data": [{"molecule": "CCCCOCCOc1ccc(-c2ccc3c(c2)/C=C(/C(=O)Nc2ccc([S@@+]([O-])Cc4cncn4CCC)cc2)CCCN3CC(C)C)cc1", "note": "[CVC, cenicriviroc mesylate]", "values": [{"measurement": "Decrease in peritoneal lavage monocyte/macrophage counts compared to vehicle control", "setting": "[1]; CVC5 (5 mg/kg/day) BID PO Days 1-5", "value": 5.7, "unit": "%"}, {"measurement": "Decrease in peritoneal lavage monocyte/macrophage counts compared to vehicle control", "setting": "[1]; CVC20 (20 mg/kg/day) BID PO Days 1-5", "value": 45.2, "unit": "%"}, {"measurement": "Decrease in peritoneal lavage monocyte/macrophage counts compared to vehicle control", "setting": "[1]; CVC20 (20 mg/kg/day) QD PO Days 1-5", "value": 26.0, "unit": "%"}, {"measurement": "Decrease in peritoneal lavage monocyte/macrophage counts compared to vehicle control", "setting": "[1]; CVC100 (100 mg/kg/day) BID PO Days 1-5", "value": 76.5, "unit": "%"}, {"measurement": "Greater reduction in monocyte/macrophage count compared to dexamethasone", "setting": "[1]; CVC100 BID vs dexamethasone 1 mg/kg QD, p < 0.001", "value": 62.1, "unit": "%"}, {"measurement": "Doses achieving statistically significant decrease in monocyte/macrophage recruitment", "setting": "[1]; p < 0.05 vs vehicle control", "value": "≥ 20", "unit": "mg/kg/day"}, {"measurement": "Effect on UUO-induced increase in obstructed kidney hydroxyproline content", "setting": "[2]; CVC7, CVC20 PO BID", "value": "did not affect"}, {"measurement": "Reduction of UUO-induced increase in Collagen Volume Fraction (±SEM) vs UUO control", "setting": "[2]; CVC7 PO BID Days 0-5", "value": "28.6%±8.8"}, {"measurement": "Inhibition of UUO-induced increases in obstructed renal cortical mRNA expression of fibrogenic genes", "setting": "[2]; CVC7 and CVC20, trend, relative to UUO control", "value": "did not reach statistical significance"}, {"measurement": "Reduction of UUO-induced increase in Collagen Volume Fraction (±SEM) vs UUO control", "setting": "[2]; CVC20 PO BID Days 0-5, single outlier removed", "value": "31.8%±6.8"}, {"measurement": "concentration at 26 h", "setting": "[3]", "value": "25.7 ± 8.1", "unit": "ng/mL"}, {"measurement": "Infiltration of Ly6Chi monocyte-derived macrophages into the liver", "setting": "[4]; APAP model, preliminary data", "value": "significantly decreased"}, {"measurement": "ALT levels relative to vehicle control", "setting": "[4]; [6]", "value": "significant reduction"}, {"measurement": "Necrotic area relative to vehicle control", "setting": "[4]; [6]", "value": "significant reduction"}, {"measurement": "Infiltration of Ly6Chi monocyte-derived macrophages into the liver", "setting": "[5]; CCl4 model, preliminary data", "value": "significantly decreased"}, {"measurement": "Necrotic area", "setting": "[5]; acute CCl4 model", "value": "significant reduction"}]}]}
